Assay results reported in patent publication US7901681B2, “Trypanosome derived apoptotic factors (TAF)” (priority 2003, dated 2011).

Legend:
[1] = system: HBVEC; test: TUNEL assay, dose response of apoptosis in HBVEC; assay type: cell-based, human
Experimental: RBVEC Cell line: Human Brain Macrovascular Endothelial Cells (HBVEC) were obtained from Biowhittaker (Walkersville, Md.). They were grown in media made as per the instructions in the Complete Medium Kit (Cell Systems Corporation, Kirkland, Wash.). Briefly, 500 ml of Complete Medium was added to 10 ml of Attachment Factor (Cell Systems Corporation, Kirkland, Wash.). The medium is a liquid medium containing 10% serum and CSC Growth factor. Cell stocks were maintained in T25 flasks at 37° C. in a 5% CO2 incubator, and were harvested and passed at about 60-80% confluence. Experiments were performed on cells plated and grown for 24 to 48 hours on collagen-coated coverslips in 35 mm tissue culture dishes.
Terminal deoxynucleotidyl transferase dUTP nick-end labeling (TUNEL) assay. […] Cells on cover slips were washed with PBS, and fixed for 30 minutes at RT with 4% paraformaldehyde, in PBS, pH 7.4. […] Total cell counts were determined by counterstaining fixed cultures with 20:g/ml of Hoechst 33258. […]
Dose Response. The effect of Trypanosome conditioned serum containing medium-induced apoptosis was determined in HBVEC. […] Total cells, and fluorescent cells were counted for each field examined (10 fields per plate minimum). The percentage of TUNEL-labeled cells was calculated as the number of FITC-stained cells divided by the total number.of cells. […]

[2] = system: mouse cerebellum; test: Mouse cerebellum apoptosis analysis (TUNEL of brain sections); assay type: in vivo, Balb/c mice; details: similar to that induced by T. brucei
Experimental: Murine African trypanosomiasis model. All animal-related procedures were carried out in strict accordance with the National Institutes of Health Guide for the Care and Use of Laboratory Animals and approved by the Morehouse School of Medicine's Animal Care and Use Committee. Male Balb/c mice (6-8 weeks of age) were maintained on a 12-hour-light/12-hour-dark cycle with access to food and water ad libitum. Mice were injected intra-peritoneally with parasitized blood (T. brucei L427) and groups of 10 were then sacrificed on days 0, 4, 6 and 8 post-infection (P.I.). Equal numbers of mice were sham-injected (with uninfected blood) as controls. All experiments were repeated twice at different times to ensure that the data were representative of each group, and took into account the potential individual-host variation in trypanosome-induced global gene expression. This murine trypanosomiasis model mimics the major clinical symptoms of HAT, with the infected mice developing fever, tremors, lethargy, weight loss, dyskinesia, convulsions, altered gait, and death by day 10 post injection (P.I.).
Mouse cerebellum and apoptosis analysis. […] The level of apoptosis visible in brain sections was determined semi-quantitatively as the mean numbers of TUNEL-positive (i.e. apoptotic) cells/cm^2 in 20 comparative fields of brain sections from infected and uninfected mice.

## AEGPEDKGLTKGGKGKGEKETKVQDEV (listed as Trypanosoma brucei) [ProEP2-1]
[1]
  induction of apoptosis in HBVEC: induce apoptosis
[1]; 24 hours
  dose dependence of TUNEL labeling of HBVEC: dose dependent
[2]
  induction of apoptosis in cerebella of mice: induce apoptosis
